Assay [1] addresses T1, Epidermal Growth Factor Receptor Kinase (EGF-R) (Homo sapiens, UniProt P00533).
T1 construct: containing the EGFR cDNA encoding amino acids 645 - 1186 preceded by Met-Ala-(His)6; Met-Ala-(His)6 (N); made in house; host or cells: Sf9 insect cells (baculovirus vHcEGFR52)
The assay can be described thus: Inhibition of Epidermal Growth Factor Receptor Kinase (EGF-R) using recombinant enzyme. It counts as biochemical. The procedure:
Representative test compounds were evaluated for their ability to inhibit the phosphorylation of the tyrosine residue of a peptide substrate catalyzed by the enzyme epidermal growth factor receptor kinase. The peptide substrate (RR-SRC) has the sequence arg-arg-leu-ile-glu-asp-ala-glu-tyr-ala-ala-arg-gly. The enzyme used in this assay is the His-tagged cytoplasmic domain of EGFR. A recombinant baculovirus (vHcEGFR52) was constructed containing the EGFR cDNA encoding amino acids 645 - 1186 preceded by Met-Ala-(His)6. Sf9 cells in 100 mm plates were infected at an moi of 10 pfu/cell and cells were harvested 48 hours post infection. A cytoplasmic extract was prepared using 1% Triton X-100 and applied to Ni-NTA column. After washing the column with 20 mM imidazole, HcEGFR was eluted with 250 mM imidazole (in 50 mM Na2HPO4, pH 8.0, 300 mM NaCl). Fractions collected were dialyzed against 10 mM HEPES, pH 7.0, 50 mM NaCl, 10% glycerol, 1µg/mL antipain and leupeptin and 0.1 mM Pefabloc SC. The protein was frozen in dry ice/methanol and stored -70° C.
Test compounds were made into 10 mg/mL stock solutions in 100% dimethylsulfoxide (DMSO). Prior to experiment, stock solutions were diluted to 500 µM with 100% DMSO and then serially diluted to the desired concentration with HEPES buffer (30 mM HEPES pH 7.4).
For the enzyme reaction, 10 µL of each inhibitor (at various concentrations) were added to each well of a 96-well plate. To this was added 3 µL of enzyme (1:10 dilution in 10mM HEPES, pH 7.4 for final conc. of 1:120). This was allowed to sit for 10 minutes on ice and was followed by the addition of 5 µl peptide (80 uM final conc.), 10µl of 4X Buffer (Table A), 0.25 µL ^33P-ATP and 12 µL H2O. The reaction was allowed to run for 90 minutes at room temperature and was followed by spotting the entire volume on to precut P81 filter papers. The filter discs were washed 2X with 0.5% phosphoric acid and radioactivity was measured using a liquid scintillation counter. Table A
The inhibition data for representative compounds of the invention are shown below in TABLE 1. The IC50 is the concentration of test compound needed to reduce the total amount of phosphorylated substrate by 50%. The % inhibition of the test compound was determined for at least three different concentrations and the IC50 value was evaluated from the dose response curve. […] CPM(control) is in units of counts per minute and was a number expressing the amount of radiolabeled ATP (γ-^33P) incorporated into the RR-SRC peptide substrate by the enzyme after 90 minutes at room temperature in the absence of test compound as measured by liquid scintillation counting. The CPM values were corrected for the background counts produced by ATP in the absence of the enzymatic reaction. Where it was possible to determine an IC50 value, this is reported in TABLE 1 otherwise the % inhibition at 0.5 µM concentration of test compound is shown in TABLE 1.

The test system of another assay is A431. Put plainly: Inhibition of cancer cell growth as measured by cell number (Sulforhodamine B). The assay is classed as cell-based. The settings on record: Homo sapiens, A-431; 48 hours exposure. The procedure: (§1) Human tumor cell lines were plated in 96-well plates (250 µl/well, 1-6 x 10^4 cells/ml) in RPMI 1640 medium, containing 5% FBS (Fetal Bovine Serum). […] After 48 hours exposure to test compounds, cells were fixed with trichloroacetic acid, and stained with Sulforhodamine B. After washing with trichloroacetic acid, bound dye was solubilized in 10 mM Tris base and optical density was determined using a plate reader. Under conditions of the assay the optical density is proportional to the number of cells in the well. IC50s (concentrations causing 50% inhibition of cell growth) were determined from the growth inhibition plots. The test procedure is described in details by Philip Skehan et. al, J.Natl. Canc. Inst., 82, 1107-1112 (1990). […] Information about some of the cell lines used in these test procedures is available from the American Type Tissue Collection: Cell Lines and Hybridomas, 1994 Reference Guide, 8th Edition. The Her2Neu cell line is a 3T3 line that has been transfected with Her2 receptor kinase.

Another assay concerns MDA435. Described as above. The assay is classed as cell-based. The settings on record: Homo sapiens, 48 hours exposure. The protocol: as §1
The next assay concerns SW620. The assay is described as above. The assay is classed as cell-based. The settings on record: Homo sapiens, SW-620; 48 hours exposure. The protocol:
as §1

The test system of the next assay is 3T3. Described as above. The assay is classed as cell-based. The settings on record: Mus musculus, NIH3T3; 48 hours exposure. The protocol: as §1
Another assay has as its system SKBR3. Described as above. To be noted: Homo sapiens, SK-BR-3; 48 hours exposure. The assay is classed as cell-based. The procedure:
as §1

For another assay, the system named is Her2Neu. Described as above. The settings on record: 48 hours exposure; 3T3 line transfected with Her2 receptor kinase. The assay is classed as cell-based. The protocol:
as §1

Values after ≈ are worked out from the molar mass of the structure shown.

T1 sequence (P00533 669-1210): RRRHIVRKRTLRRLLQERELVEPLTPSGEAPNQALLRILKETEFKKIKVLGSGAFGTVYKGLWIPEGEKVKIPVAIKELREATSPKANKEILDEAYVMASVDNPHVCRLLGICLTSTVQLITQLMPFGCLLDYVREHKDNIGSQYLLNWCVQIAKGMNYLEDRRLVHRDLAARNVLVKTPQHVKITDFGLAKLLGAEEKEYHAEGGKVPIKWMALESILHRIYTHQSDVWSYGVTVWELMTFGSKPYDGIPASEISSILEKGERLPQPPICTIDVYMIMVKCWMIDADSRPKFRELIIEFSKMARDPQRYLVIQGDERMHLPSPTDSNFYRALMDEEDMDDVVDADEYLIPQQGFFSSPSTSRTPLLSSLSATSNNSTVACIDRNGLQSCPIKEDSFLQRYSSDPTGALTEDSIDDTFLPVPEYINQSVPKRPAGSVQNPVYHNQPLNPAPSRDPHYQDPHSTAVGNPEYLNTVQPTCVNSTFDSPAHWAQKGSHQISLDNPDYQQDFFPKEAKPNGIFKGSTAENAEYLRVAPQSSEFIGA

Consider `N#Cc1cnc2cc3c(cc2c1Nc1ccc(F)c(Cl)c1)NCCO3` [Example 7, 9-(3-Chloro-4-fluoroanilino)-2,3-dihydro-1H-[1,4]oxazino[3,2-g]quinoline-8-carbonitrile], for which the inhibition at 0.5 µM in assay [1] (0.5 µM concentration of test compound) amounted to 35.5%. In addition, the IC50 amounted to 1000 nM in assay [1] (recombinant enzyme); 0.527 µg/mL (≈ 1.49 µM) with A431; 1.43 µg/mL (≈ 4.03 µM) with MDA435; 2.9 µg/mL (≈ 8.17 µM) with SW620; 3.02 µg/mL (≈ 8.51 µM) in the assay on 3T3; 0.968 µg/mL (≈ 2.73 µM) in the assay with SKBR3. In the assay on Her2Neu, this molecule returned an IC50 of 3.9 µg/mL (≈ 11 µM).

Values taken from patent EP1268487B1, “TRICYCLIC PROTEIN KINASE INHIBITORS” (Wyeth, priority 2000, dated 2001).
